Test results published in publication PMC12024814, “Ruthenium(II)–Arene Complexes with a 2,2′-Bipyridine Ligand as Anti-Aβ Agents” (Biomolecules, 2025).

Assays:
[1] = target: T1, human serum albumin (HSA) (Homo sapiens, UniProt P02768); assay: Protein binding assay, warfarin (WF) displacement, Sudlow site I; conditions: warfarin probe, Stern–Volmer slope, HSA and WF 2.5 μM, PBS
T1 construct: purchased Sigma Aldrich
Protocol: A stock of human serum albumin (HSA, 100 μM) was prepared using PBS, while the probes dansyl glycine (DG) and warfarin (WF) were prepared by initially dissolving them in DMSO and diluting them with PBS until the concentration of DMSO was less than 5%. Solutions of each Ru complex were prepared by initial dissolution in DMSO and subsequent dilution using PBS until the concentration of DMSO was less than 5%. The total volume of each sample was 3.5 mL, where the concentration of HSA and DG/WF was 2.5 μM throughout the experiment. The Ru concentration ranged from 0 μM to 62.5 μM, with an increase of 12.5 μM for each sample. In total, six samples were prepared for each protein binding assay. After preparation, the samples were placed on an IKA Trayster inversion mixer (60 rpm) for 30 s and incubated at approximately 28 °C in a Neslab gp-200 for 15 min, before being placed back on the inversion mixer (60 rpm) for 30 s. All fluorescence measurements for the protein binding assay were made using a PTI QuantiMaster 50, and the samples were measured at room temperature with conditions respective to the probe.
One important consideration for a potential AD therapeutic is its interaction with serum proteins, specifically albumin (HSA). […] To determine the potential association of the prepared Ru complexes with HSA, a protein binding assay was performed. For these studies, the displacement of two fluorometric probes was used to determine the relative affinity of the Ru complexes for two of the established binding sites on HSA. The first probe, warfarin (WF), an anticoagulant, binds selectively to Sudlow site I on HSA [55], while the second probe used was dansyl glycine (DG), which selectively binds to Sudlow site II on HSA [56]. As these are the two major binding sites on the protein, the probes allow for observations of binding events that occur within these hydrophobic pockets. Individually, the probes were initially mixed with HSA, followed by increasing amounts of the respective Ru complexes, whereby the decrease in fluorescence signals from the respective probes (Figures S22–S30) was used to construct a Stern–Volmer plot, where the slope of the line represents the conditional binding constant (K’) for the respective Ru complexes to each site (Figure 8).

[2] = system: C6 glioma cells; assay: MTT cell viability assay, C6 glioma cells; assay type: cell-based, Rattus norvegicus; conditions: for Ranking Cytotoxicity: scale 1 to 5 (1 = best, 5 = worst), C6 glioma cells; for cell morphology versus DMSO-treated control (confocal microscopy): 20 µM
Protocol: Cultures of adherent Rattus norvegicus pheochromocytoma cells (PC-12; ATCC CRL-1721) and axenic Rattus norvegicus C6 glioma cells (ATTC CCL-107) were prepared as previously reported. The cells were cultured using Dulbecco’s Modified Eagle’s medium with low glucose, sodium pyruvate, and without phenol red or L-glutamine (DMEM REF:11054-020; GIBCO; Waltham, MA, USA) and supplemented with 1.5% (v/v) heat-inactivated fetal bovine serum (GIBCO; Waltham, MA, USA), 10% (v/v) sterile filtered horse serum (Sigma-Aldrich, St. Louis, MO, USA), and 4% sterile L-glutamine (Sigma-Aldrich; St. Louis, MO, USA). Medium supplemented with sera was referred to as “complete medium”, while non-supplemented medium was designated as “incomplete”.
For the viability assays, both cell types were grown to confluency before being trypsinized, resuspended in 1 mL of complete medium per confluent well of a 6-well plate, diluted ten-fold, and then counted with a Scepter 2.0 Handheld Automated Cell Counter (Millipore, Burlington, MA, USA) affixed with a 60 µm sensor. Cells were subsequently seeded (adding 100 µL per well, thus adding an average of 1.0 × 10^4 cells per well) into poly-L-lysine-coated flat-bottomed 96-wells using separate plates for each cell type. Stock solutions of the Ru complexes were prepared in DMSO, with an appropriate dilution using DMSO to the testing concentrations of 40, 20, 2, or 0.2 µM. In all cases, the final concentration of DMSO was 1% with cell incubations. Solutions of the Ru complexes or DMSO were introduced 24 h after cell plating and incubated a further 24 h unless otherwise indicated. Replicate wells (n = 4) were set up for each experimental variation. No cell controls were also set up, containing the Ru complex in DMSO additions, so that potential spectral signals could be blanked out for the spectrophotometric 3-[4,5-dimethylthiazol-2-yl]-2,5-diphenyltetrazoliumbromide (MTT) viability assay, as described below.
To assess the viability of the cells with and without Ru additions, cell viability tests were performed using an MTT assay following the procedure of Mosmann with the following variations: Before adding the MTT reagent (5 mg/mL water), 90 µL of the complete medium was removed from each well, and 90 µL of incomplete medium was added. Then, 10 µL of MTT reagent was added per well, gently mixed, and incubated at ambient temperature for one hour. The reactions were stopped by the addition of 100 µL per well of the stopping reagent (10% v/v Triton X-100, 1 mM HCl in isopropanol) to lyse the cells and dissolve the formed formazan crystals. The absorbance values were recorded using a Bio-Rad® Microplate Reader Benchmark at 595 nm. All MTT data were normalized to the DMSO controls by calculating the average percent of DMSO control with the following formula: average cell+Ru MTT−average (Ru blank MTT)/average control cell MTT−average (control blank MTT) × 100
Data were obtained from 4 replicates and reported as a percent of control cells.
A final step in the evaluation of the Ru complexes was completed using a standard MTT cell viability assay towards two neuronal cells lines. The cell lines used were glial cells, as these are the most abundant cell type within the brain [61], and chromaffin cells, which would provide an indication regarding stress response. Taken together, these would provide information regarding the overall biocompatibility of the Ru complexes.

[3] = system: pheochromocytoma cells (PC-12); assay: MTT cell viability assay, PC-12 cells; assay type: cell-based, Rattus norvegicus; conditions: 24 h
Protocol: Cultures of adherent Rattus norvegicus pheochromocytoma cells (PC-12; ATCC CRL-1721) and axenic Rattus norvegicus C6 glioma cells (ATTC CCL-107) were prepared as previously reported. The cells were cultured using Dulbecco’s Modified Eagle’s medium with low glucose, sodium pyruvate, and without phenol red or L-glutamine (DMEM REF:11054-020; GIBCO; Waltham, MA, USA) and supplemented with 1.5% (v/v) heat-inactivated fetal bovine serum (GIBCO; Waltham, MA, USA), 10% (v/v) sterile filtered horse serum (Sigma-Aldrich, St. Louis, MO, USA), and 4% sterile L-glutamine (Sigma-Aldrich; St. Louis, MO, USA). […]
For the viability assays, both cell types were grown to confluency before being trypsinized, resuspended in 1 mL of complete medium per confluent well of a 6-well plate, diluted ten-fold, and then counted with a Scepter 2.0 Handheld Automated Cell Counter (Millipore, Burlington, MA, USA) affixed with a 60 µm sensor. […]
To assess the viability of the cells with and without Ru additions, cell viability tests were performed using an MTT assay following the procedure of Mosmann with the following variations: Before adding the MTT reagent (5 mg/mL water), 90 µL of the complete medium was removed from each well, and 90 µL of incomplete medium was added. […] The absorbance values were recorded using a Bio-Rad® Microplate Reader Benchmark at 595 nm. […]

T1 sequence (P02768 25-609): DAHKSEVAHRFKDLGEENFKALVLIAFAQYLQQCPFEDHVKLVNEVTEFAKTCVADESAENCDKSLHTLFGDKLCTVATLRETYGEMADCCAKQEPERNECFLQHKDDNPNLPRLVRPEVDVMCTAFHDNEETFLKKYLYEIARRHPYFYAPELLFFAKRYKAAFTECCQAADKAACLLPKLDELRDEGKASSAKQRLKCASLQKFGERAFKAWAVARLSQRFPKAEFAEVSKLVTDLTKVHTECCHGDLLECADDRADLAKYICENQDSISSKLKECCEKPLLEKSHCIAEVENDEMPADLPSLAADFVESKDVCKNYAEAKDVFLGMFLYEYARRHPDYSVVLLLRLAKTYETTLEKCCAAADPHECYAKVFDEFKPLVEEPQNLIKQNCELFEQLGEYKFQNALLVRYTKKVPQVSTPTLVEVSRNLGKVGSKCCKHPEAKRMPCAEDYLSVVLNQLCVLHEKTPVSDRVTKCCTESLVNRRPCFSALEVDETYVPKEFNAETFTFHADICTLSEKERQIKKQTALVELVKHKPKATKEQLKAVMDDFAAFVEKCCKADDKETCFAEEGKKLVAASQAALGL

Compound | Log K (WF), conditional binding constant to serum albumin [1] | Ranking Cytotoxicity [2] | toxicity (MTT) ([3]; 20 and 40 µM) | IC50 (cell viability) ([3]; tested 0.2–40 µM) | cell morphology versus DMSO-treated control (confocal microscopy) ([2]; C6 cells, 24 h) | toxicity (MTT) ([2]; C6 cells, 20 and 40 µM, 24 h)
Cc1ccc(C(C)C)cc1.F[P-](F)(F)(F)(F)F.[Cl-].[Ru+2].c1ccc(-c2ccccn2)nc1 [RuB, [Ru(η^6-p-cymene)(2,2′-bipyridine)Cl]PF6] | 4.24 | 4 |  |  |  | 
Cc1ccc(C(C)C)cc1.Cc1ccnc(-c2cc(C)ccn2)c1.F[P-](F)(F)(F)(F)F.[Cl-].[Ru+2] [RuBMe, [Ru(η^6-p-cymene)(4,4′-dimethyl-2,2′-bipyridine)Cl]PF6] | 4.56 | 2 |  |  |  | 
[Ru(η^6-p-cymene)(4,4′-di-tert-butyl-2,2′-bipyridine)Cl]PF6 [RuBtB] |  | 5 | substantial toxicity | below the concentrations evaluated | severely reduced in numbers and cell shapes | substantial toxicity
[Ru(η^6-p-cymene)(4,4′-diamino-2,2′-bipyridine)Cl]PF6 [RuBA] | 4.38 | 1 |  |  | virtually indistinguishable | 
[Ru(η^6-p-cymene)(4,4′-dimethoxy-2,2′-bipyridine)Cl]PF6 [RuBMeO] | 4.00 | 3 |  |  |  | 
